Test results reported in ChEMBL document CHEMBL1137324, “Novel selective orally active CRTH2 antagonists for allergic inflammation developed from in silico derived hits” (J Med Chem, 2006).
Values after ≈ are worked out from the molar mass of the structure shown. Active and inactive are the calls of the source. The rule behind the calls is not given here.

Legend:
[1] = molecular target: Sodium-dependent serotonin transporter (Homo sapiens) (UniProt P31645); test: Inhibition of human 5-HT transporter at 10 uM
Sodium-dependent serotonin transporter (Homo sapiens), sequence (P31645 whole entry, looked up): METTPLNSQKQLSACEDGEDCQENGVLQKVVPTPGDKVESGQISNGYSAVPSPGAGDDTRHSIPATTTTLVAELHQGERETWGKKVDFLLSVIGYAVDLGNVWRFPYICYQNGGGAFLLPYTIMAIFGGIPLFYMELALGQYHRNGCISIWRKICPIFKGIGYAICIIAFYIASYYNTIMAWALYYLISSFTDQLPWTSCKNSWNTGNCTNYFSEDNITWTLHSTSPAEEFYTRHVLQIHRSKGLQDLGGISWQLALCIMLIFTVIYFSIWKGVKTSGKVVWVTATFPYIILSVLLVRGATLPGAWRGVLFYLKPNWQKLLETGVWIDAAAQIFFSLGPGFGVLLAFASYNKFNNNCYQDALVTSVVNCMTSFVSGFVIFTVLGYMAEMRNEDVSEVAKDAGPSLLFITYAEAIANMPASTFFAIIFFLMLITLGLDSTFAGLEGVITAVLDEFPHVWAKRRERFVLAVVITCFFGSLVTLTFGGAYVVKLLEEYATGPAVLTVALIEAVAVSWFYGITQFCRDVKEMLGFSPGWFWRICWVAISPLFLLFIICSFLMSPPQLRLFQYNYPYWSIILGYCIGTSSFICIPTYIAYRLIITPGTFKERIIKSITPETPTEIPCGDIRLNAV

[2] = molecular target: Prostaglandin G/H synthase 1 (Homo sapiens) (UniProt P23219); test: Inhibition of COX1 at 10 uM
Prostaglandin G/H synthase 1 (Homo sapiens), sequence (P23219 whole entry): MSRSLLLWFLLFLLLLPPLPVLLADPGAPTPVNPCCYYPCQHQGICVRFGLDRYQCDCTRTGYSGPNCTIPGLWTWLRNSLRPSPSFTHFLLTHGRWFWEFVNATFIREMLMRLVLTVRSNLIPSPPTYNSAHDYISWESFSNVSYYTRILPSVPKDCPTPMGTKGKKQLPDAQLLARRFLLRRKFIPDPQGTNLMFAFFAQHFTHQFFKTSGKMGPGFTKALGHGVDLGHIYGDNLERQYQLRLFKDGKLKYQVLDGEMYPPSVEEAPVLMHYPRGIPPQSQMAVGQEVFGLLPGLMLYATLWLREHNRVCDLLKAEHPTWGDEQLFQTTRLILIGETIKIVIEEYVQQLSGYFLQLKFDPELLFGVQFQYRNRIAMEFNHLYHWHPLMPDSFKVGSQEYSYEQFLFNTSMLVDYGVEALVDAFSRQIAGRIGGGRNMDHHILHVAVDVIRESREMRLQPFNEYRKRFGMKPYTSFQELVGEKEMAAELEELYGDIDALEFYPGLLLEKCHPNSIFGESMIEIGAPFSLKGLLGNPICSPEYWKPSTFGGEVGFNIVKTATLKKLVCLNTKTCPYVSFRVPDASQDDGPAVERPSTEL

[3] = molecular target: fMet-Leu-Phe receptor (Homo sapiens) (UniProt P21462); test: Inhibition of human fMLP receptor at 10 uM
[4] = molecular target: Beta-1 adrenergic receptor (Homo sapiens) (UniProt P08588); test: Inhibition of human beta-1 receptor at 10 uM
Beta-1 adrenergic receptor (Homo sapiens), sequence (P08588 whole entry, looked up): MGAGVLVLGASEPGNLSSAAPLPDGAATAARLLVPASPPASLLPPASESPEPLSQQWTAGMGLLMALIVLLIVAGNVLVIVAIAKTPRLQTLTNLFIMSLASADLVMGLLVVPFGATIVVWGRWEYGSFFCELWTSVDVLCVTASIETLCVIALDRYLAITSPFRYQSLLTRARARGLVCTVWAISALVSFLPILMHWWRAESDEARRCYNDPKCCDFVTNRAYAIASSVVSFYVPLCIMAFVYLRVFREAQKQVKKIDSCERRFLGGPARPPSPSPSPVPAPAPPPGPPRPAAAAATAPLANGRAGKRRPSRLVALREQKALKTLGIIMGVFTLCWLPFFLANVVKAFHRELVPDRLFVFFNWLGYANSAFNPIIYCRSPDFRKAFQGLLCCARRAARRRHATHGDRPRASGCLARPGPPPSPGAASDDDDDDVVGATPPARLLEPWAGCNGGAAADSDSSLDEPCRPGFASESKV

[5] = Aqueous solubility at pH 1; type: physicochemical; details: buffer
[6] = molecular target: Histamine H1 receptor (Homo sapiens) (UniProt P35367); test: Inhibition of human H1 receptor at 10 uM
[7] = organism: Rattus norvegicus; test: Stability in rat liver S9 fraction; type: ADME
[8] = Distribution coefficient, log D at pH 7.4; type: physicochemical; details: octanol/water
[9] = molecular target: Melanin-concentrating hormone receptor 1 (Homo sapiens) (UniProt Q99705); test: Inhibition of human MCH1 receptor at 10 uM
Melanin-concentrating hormone receptor 1 (Homo sapiens), sequence (Q99705 whole entry): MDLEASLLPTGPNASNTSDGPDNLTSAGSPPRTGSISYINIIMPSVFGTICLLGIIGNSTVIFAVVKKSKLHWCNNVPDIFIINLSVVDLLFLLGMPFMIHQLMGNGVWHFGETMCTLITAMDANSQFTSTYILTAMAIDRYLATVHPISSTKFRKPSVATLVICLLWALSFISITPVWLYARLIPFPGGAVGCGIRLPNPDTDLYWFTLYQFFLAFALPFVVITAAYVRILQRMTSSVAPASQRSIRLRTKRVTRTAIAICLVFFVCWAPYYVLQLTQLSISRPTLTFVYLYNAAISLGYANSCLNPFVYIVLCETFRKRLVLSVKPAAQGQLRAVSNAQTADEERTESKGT

[10] = molecular target: Nociceptin receptor (Homo sapiens) (UniProt P41146); test: Inhibition of human ORL1 at 10 uM
Nociceptin receptor (Homo sapiens), sequence (P41146 whole entry): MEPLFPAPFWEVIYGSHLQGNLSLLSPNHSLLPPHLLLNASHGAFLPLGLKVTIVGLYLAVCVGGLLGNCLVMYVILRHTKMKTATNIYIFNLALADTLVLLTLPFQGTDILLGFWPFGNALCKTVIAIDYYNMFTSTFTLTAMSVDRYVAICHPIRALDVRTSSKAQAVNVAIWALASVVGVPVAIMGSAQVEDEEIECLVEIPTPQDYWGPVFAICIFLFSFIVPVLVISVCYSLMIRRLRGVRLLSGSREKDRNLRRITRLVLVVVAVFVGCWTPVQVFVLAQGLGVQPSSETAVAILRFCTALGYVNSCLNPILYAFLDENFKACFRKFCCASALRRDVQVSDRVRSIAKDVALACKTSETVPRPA

[11] = molecular target: Endothelin-1 receptor (Homo sapiens) (UniProt P25101); test: Inhibition of human ETA receptor at 10 uM
Endothelin-1 receptor (Homo sapiens), sequence (P25101 whole entry): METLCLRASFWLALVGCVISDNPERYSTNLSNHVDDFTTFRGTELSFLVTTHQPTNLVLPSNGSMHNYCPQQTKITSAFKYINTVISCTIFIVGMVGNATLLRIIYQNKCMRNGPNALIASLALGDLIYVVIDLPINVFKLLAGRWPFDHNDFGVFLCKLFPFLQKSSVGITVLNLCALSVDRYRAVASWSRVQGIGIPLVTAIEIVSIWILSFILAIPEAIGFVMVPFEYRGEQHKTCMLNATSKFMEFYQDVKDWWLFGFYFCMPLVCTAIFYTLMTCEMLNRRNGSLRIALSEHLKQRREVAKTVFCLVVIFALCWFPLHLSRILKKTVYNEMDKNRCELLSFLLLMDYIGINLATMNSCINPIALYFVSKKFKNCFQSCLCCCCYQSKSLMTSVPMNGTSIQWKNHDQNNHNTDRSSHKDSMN

[12] = molecular target: Sodium-dependent dopamine transporter (Homo sapiens) (UniProt Q01959); test: Inhibition of human DA transporter at 10 uM
Sodium-dependent dopamine transporter (Homo sapiens), sequence (Q01959 whole entry): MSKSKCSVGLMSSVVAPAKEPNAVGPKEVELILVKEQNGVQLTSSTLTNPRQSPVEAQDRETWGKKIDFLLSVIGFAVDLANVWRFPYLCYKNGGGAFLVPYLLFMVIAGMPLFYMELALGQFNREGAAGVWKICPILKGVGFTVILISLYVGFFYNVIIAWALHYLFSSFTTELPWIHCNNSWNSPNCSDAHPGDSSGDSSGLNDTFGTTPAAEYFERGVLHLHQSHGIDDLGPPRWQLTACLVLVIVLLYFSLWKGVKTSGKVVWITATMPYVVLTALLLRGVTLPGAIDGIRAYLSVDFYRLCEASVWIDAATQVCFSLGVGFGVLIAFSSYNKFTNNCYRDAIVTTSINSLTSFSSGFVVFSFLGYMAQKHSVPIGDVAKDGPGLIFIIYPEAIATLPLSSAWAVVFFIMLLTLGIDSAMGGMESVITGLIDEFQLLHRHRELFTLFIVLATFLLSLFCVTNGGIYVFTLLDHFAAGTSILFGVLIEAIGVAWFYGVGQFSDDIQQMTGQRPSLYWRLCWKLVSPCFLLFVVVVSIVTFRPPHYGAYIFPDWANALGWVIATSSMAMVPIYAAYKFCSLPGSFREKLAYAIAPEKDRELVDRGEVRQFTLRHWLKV

[13] = system: Mus musculus; test: Inhibition of peribronchial eosinophilia in BALB/c mouse at 5 mg/kg, po relative to control; type: functional, organism-based; set-up: dose 5 mg/kg
[14] = molecular target: Cysteinyl leukotriene receptor 1 (Homo sapiens) (UniProt Q9Y271); test: Inhibition of human LTD4 receptor at 10 uM
[15] = molecular target: Phospholipase A2 (Homo sapiens) (UniProt P04054); test: Inhibition of PLA2 at 10 uM
Phospholipase A2 (Homo sapiens), sequence (P04054 23-148 limits assumed): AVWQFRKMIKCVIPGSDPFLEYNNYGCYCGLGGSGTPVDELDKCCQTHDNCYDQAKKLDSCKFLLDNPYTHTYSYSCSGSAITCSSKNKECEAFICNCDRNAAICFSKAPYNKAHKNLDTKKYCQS

[16] = system: Mus musculus; test: Inhibition of peribronchial eosinophilia in BALB/c mouse at 30 mg/kg, po relative to control; type: functional
[17] = system: Mus musculus; test: Inhibition of peribronchial eosinophilia in BALB/c mouse at 100 mg/kg, po relative to control; type: functional
[18] = molecular target: D(2) dopamine receptor (Homo sapiens) (UniProt P14416); test: Inhibition of human D2S receptor at 10 uM
D(2) dopamine receptor (Homo sapiens), sequence (P14416 whole entry): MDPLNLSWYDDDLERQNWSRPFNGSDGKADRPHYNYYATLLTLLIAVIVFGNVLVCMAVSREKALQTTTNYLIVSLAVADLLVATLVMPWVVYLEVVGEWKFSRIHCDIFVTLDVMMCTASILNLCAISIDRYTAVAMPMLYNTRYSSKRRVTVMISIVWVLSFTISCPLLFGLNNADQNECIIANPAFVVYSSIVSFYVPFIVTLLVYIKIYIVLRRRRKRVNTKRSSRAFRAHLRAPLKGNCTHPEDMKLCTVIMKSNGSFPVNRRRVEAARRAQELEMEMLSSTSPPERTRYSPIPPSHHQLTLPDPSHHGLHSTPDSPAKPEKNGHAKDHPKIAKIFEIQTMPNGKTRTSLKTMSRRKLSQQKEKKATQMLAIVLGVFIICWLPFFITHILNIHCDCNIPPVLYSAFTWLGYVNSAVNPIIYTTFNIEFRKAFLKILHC

[19] = molecular target: D(1A) dopamine receptor (Homo sapiens) (UniProt P21728); test: Inhibition of human D1 receptor at 10 uM
D(1A) dopamine receptor (Homo sapiens), sequence (P21728 whole entry): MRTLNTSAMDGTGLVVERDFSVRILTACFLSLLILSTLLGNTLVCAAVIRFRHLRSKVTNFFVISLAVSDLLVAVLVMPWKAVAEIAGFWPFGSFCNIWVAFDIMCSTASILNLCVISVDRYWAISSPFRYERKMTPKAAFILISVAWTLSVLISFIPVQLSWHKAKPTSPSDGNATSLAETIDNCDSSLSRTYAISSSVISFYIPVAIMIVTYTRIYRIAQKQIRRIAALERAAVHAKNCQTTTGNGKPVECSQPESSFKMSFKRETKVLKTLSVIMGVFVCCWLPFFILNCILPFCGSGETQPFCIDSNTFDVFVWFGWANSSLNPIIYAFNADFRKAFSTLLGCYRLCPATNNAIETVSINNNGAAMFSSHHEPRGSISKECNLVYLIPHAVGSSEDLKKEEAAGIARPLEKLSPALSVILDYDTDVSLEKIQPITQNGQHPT

[20] = molecular target: Type-1 angiotensin II receptor (Homo sapiens) (UniProt P30556); test: Inhibition of AT1
Type-1 angiotensin II receptor (Homo sapiens), sequence (P30556 whole entry): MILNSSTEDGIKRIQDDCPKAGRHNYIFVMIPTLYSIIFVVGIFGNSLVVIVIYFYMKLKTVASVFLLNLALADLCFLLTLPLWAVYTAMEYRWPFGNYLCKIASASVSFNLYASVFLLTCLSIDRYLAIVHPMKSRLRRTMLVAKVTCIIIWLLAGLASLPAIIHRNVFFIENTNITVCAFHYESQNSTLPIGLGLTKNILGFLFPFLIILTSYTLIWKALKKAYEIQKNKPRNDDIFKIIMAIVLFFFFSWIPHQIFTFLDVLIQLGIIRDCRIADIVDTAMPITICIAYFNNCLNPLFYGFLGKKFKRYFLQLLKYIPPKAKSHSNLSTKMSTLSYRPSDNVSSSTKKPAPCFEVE

[21] = Permeability from apical to basolateral side of Caco-2 cells; type: ADME, cell-based; details: human, read-out: permeability
[22] = system: Mus musculus; test: Inhibition of goblet cell hyperplasia in BALB/c mouse at 5 mg/kg, po relative to control; type: functional, organism-based; set-up: dose 5 mg/kg
[23] = molecular target: GABA-A receptor; anion channel (Homo sapiens) (UniProt P14867+P47870+P18507+P28472+P48169+Q99928+Q9UN88+P34903+O00591+O14764+Q8N1C3+P18505+P78334+P47869+P31644+Q16445); test: Inhibition of human GABA receptor at 10 uM; type: protein-complex assay
[24] = Half life in rat; type: ADME, organism-based; details: in vivo
[25] = molecular target: Thromboxane A2 receptor (Homo sapiens) (UniProt P21731); test: Inhibition of human TXA2 receptor at 10 uM

- inhibition [1]: < 30%
- inhibition [2]: < 20%
- inhibition [3]: < 30%
- inhibition [4]: < 30%
- solubility [5]: 80 µM (≈ 32.1 µg/mL)
- inhibition [6]: < 30%
- Stability [7]: 92%
- logD [8]: 0.64
- inhibition [9]: < 30%
- inhibition [10]: < 30%
- inhibition [11]: < 30%
- inhibition [12]: < 30%
- inhibition [14]: < 30%
- inhibition [15]: < 20%
- inhibition [18]: < 30%
- inhibition [19]: < 30%
- Activity [20]: inactive
- Papp A→B [21]: 8.7 ×10⁻⁶ cm/s
- inhibition [23]: < 30%
- half-life [24]: 2.7 h
- inhibition [25]: < 30%
Compound: O=C(O)COc1ccc(Br)cc1C(=O)c1cnn(-c2ccccc2)c1
- Activity [13]: Active
- inhibition in vivo at 30 mg/kg [16]: 62%
- inhibition in vivo at 100 mg/kg [17]: 55%
- Activity [22]: Active
